Experimental data taken from patent publication US4272437A, “Antibacterial agents, and 4-thio azetidinone intermediates” (priority 1979, dated 1981).
Converted amounts (≈) assume the structure as drawn. Counter-ions that a name gives are not always drawn. Like-named read-outs stand apart in the source and are kept apart here.

Key:
Str. pneumoniae A-9585 = assay: MIC, tube dilution, Streptococcus pneumoniae A9585; type: cell-based; conditions: Streptococcus pneumoniae, A9585, Str. pneumoniae A9585; overnight 37° C., Nutrient Broth; read-out: Minimum Inhibitory Concentration (M.I.C.)
Excerpt: (§1) Representative compounds of the present invention were subjected to in vitro antibiotic screening against a variety of microorganisms.

Str. pyogenes A-9604 = assay: MIC, tube dilution, Streptococcus pyogenes A9604; type: cell-based; conditions: overnight 37° C., Nutrient Broth; for MIC: Streptococcus pyogenes, A9604, Str. pyogenes A9604, read-out: Minimum Inhibitory Concentration (M.I.C.)
Excerpt: as §1

Staph. aureus A-9537 = assay: MIC, tube dilution, Staphylococcus aureus A9537; type: cell-based; conditions: overnight 37° C., Nutrient Broth; for MIC: Staphylococcus aureus, A9537, Staph. aureus A9537, read-out: Minimum Inhibitory Concentration (M.I.C.)
Excerpt: as §1

[1] = tested on: Staph. aureus A-9537 and 50% serum; assay: MIC, tube dilution, Staph. aureus A9537 + 50% serum; type: cell-based, Staphylococcus aureus; conditions: Staphylococcus aureus, overnight 37° C., read-out: Minimum Inhibitory Concentration (M.I.C.)
Excerpt: as §1

[2] = tested on: Staph. aureus (Pen-Res) A-9606; assay: MIC, tube dilution, Staphylococcus aureus A9606 (Pen-Res); type: cell-based; conditions: Staphylococcus aureus, overnight 37° C.
Excerpt: as §1

[3] = tested on: Staph. aureus (Meth-Res) A-15097; assay: MIC, tube dilution, Staphylococcus aureus A15097 (Meth-Res); type: cell-based; conditions: overnight 37° C.; for MIC: Staphylococcus aureus
Excerpt: as §1

Str. faecalis A-20688 = assay: MIC, tube dilution, Streptococcus faecalis A20688; type: cell-based; conditions: Enterococcus faecalis, A20688, Str. faecalis A20688; overnight 37° C.; read-out: Minimum Inhibitory Concentration (M.I.C.)
Excerpt: as §1

E. coli A-15119 = assay: MIC, tube dilution, Escherichia coli A15119; type: cell-based; conditions: Escherichia coli, A15119, E. coli A15119; overnight 37° C.; read-out: Minimum Inhibitory Concentration (M.I.C.)
Excerpt: as §1

E. coli A-20341-1 = assay: MIC, tube dilution, Escherichia coli A20341-1; type: cell-based
Excerpt: as §1

K. pneumoniae A-15130 = assay: MIC, tube dilution, Klebsiella pneumoniae A15130; type: cell-based; conditions: Klebsiella pneumoniae, A15130, K. pneumoniae A15130; overnight 37° C.; read-out: Minimum Inhibitory Concentration (M.I.C.)
Excerpt: as §1

[4] = tested on: Klebsiella species A20468; assay: MIC, tube dilution, Klebsiella species A20468; type: cell-based; conditions: Klebsiella species (K. pneumoniae) A20468; overnight 37° C.; read-out: Minimum Inhibitory Concentration (M.I.C.)
Excerpt: as §1

Pr. mirabilis A-9900 = assay: MIC, tube dilution, Proteus mirabilis A9900; type: cell-based; conditions: Proteus mirabilis, A9900, Proteus mirabilis A9900; overnight 37° C.; read-out: Minimum Inhibitory Concentration (M.I.C.)
Excerpt: as §1

Pr. morganii A-15153 = assay: MIC, tube dilution, Proteus morganii A15153; type: cell-based; conditions: Morganella morganii, A15153, Proteus morganii A15153; overnight 37° C.; read-out: Minimum Inhibitory Concentration (M.I.C.)
Excerpt: as §1

Ser. marcescens A-20019 = assay: MIC, tube dilution, Serratia marcescens A20019; type: cell-based; conditions: Serratia marcescens, A20019, Serratia marcescens A20019; overnight 37° C.; read-out: Minimum Inhibitory Concentration (M.I.C.)
Excerpt: as §1

Ent. cloacae A-9659 = assay: MIC, tube dilution, Enterobacter cloacae A9659; type: cell-based; conditions: Enterobacter cloacae, A9659, Enterobacter cloacae A9659; overnight 37° C.; read-out: Minimum Inhibitory Concentration (M.I.C.)
Excerpt: as §1

Ent. cloacae A-9656 = assay: MIC, tube dilution, Enterobacter cloacae A9656; type: cell-based; conditions: overnight 37° C., read-out: Minimum Inhibitory Concentration (M.I.C.)
Excerpt: as §1

Ps. aeruginosa A-9843A = assay: MIC, tube dilution, Pseudomonas aeruginosa A9843A; type: cell-based; conditions: Pseudomonas aeruginosa, A9843A, read-out: Minimum Inhibitory Concentration (M.I.C.), Pseudomonas aeruginosa A9843A; overnight 37° C.
Excerpt: as §1

Ps. aeruginosa A-21213 = assay: MIC, tube dilution, Pseudomonas aeruginosa A21213; type: cell-based; conditions: overnight 37° C., read-out: Minimum Inhibitory Concentration (M.I.C.)
Excerpt: as §1

Proteus rettgeri A21203 = assay: MIC, tube dilution, Proteus rettgeri A21203; type: cell-based; conditions: Providencia rettgeri, overnight 37° C., read-out: Minimum Inhibitory Concentration (M.I.C.)
Excerpt: as §1

Proteus vulgaris A21559 = assay: MIC, tube dilution, Proteus vulgaris A21559; type: cell-based; conditions: Proteus vulgaris, A21559, Proteus vulgaris A21559; overnight 37° C.; read-out: Minimum Inhibitory Concentration (M.I.C.)
Excerpt: as §1

[5] = Staph. aureus A9606 (Pen-Res), read-out: Minimum Inhibitory Concentration (M.I.C.)
[6] = Staph. aureus A15097 (Meth-Res), read-out: Minimum Inhibitory Concentration (M.I.C.)
[7] = Escherichia coli, A203411, E. coli A20341-1; overnight 37° C.; read-out: Minimum Inhibitory Concentration (M.I.C.)
[8] = Enterobacter cloacae, A9656, Enterobacter cloacae A9656
[9] = A21203, Proteus rettgeri A21203

## CC1=C(C(=O)O)N2C(=O)[C@H](CNC=O)[C@H]2S1 (relative stereo) [Example 92, 6-Formamidomethyl-2-methylpenem-3-carboxylic acid, sodium and potassium salts]
Str. pneumoniae A-9585
  MIC: 0.5 µg/mL
Str. pyogenes A-9604
  MIC: 0.5 µg/mL
Staph. aureus A-9537
  MIC: 8 µg/mL
[1]
  MIC: 32 µg/mL
[2]; [5]
  MIC: 16 µg/mL
[3]; [6]
  MIC: 32 µg/mL
Str. faecalis A-20688
  MIC: > 63 µg/mL
E. coli A-15119
  MIC: 32 µg/mL
E. coli A-20341-1; [7]
  MIC: 32 µg/mL
K. pneumoniae A-15130
  MIC: 63 µg/mL
[4]
  MIC: 63 µg/mL
Pr. mirabilis A-9900
  MIC: 32 µg/mL
Pr. morganii A-15153
  MIC: 63 µg/mL
Ser. marcescens A-20019
  MIC: 63 µg/mL
Ent. cloacae A-9659
  MIC: 63 µg/mL
Ent. cloacae A-9656; [8]
  MIC: 63 µg/mL
Ps. aeruginosa A-9843A
  MIC: > 63 µg/mL
Ps. aeruginosa A-21213; Pseudomonas aeruginosa, A21213, Pseudomonas aeruginosa A21213
  MIC: > 63 µg/mL
Proteus rettgeri A21203; [9]
  MIC: 32 µg/mL
Proteus vulgaris A21559
  MIC: 32 µg/mL

## CC1=C(C(=O)O)N2C(=O)[C@@H]([C@H](C)O)[C@H]2S1 (relative stereo) [Example 61, (1'S,5R,6R and 1'R,5S,6S) 6-(1'-Hydroxy-1'-ethyl)-2-methylpenem-3-carboxylic Acid (isomer A)]
Str. pneumoniae A-9585
  MIC: 0.03 µg/mL (≈ 0.131 µM)
Str. pyogenes A-9604
  MIC: 0.06 µg/mL (≈ 0.262 µM)
Staph. aureus A-9537
  MIC: 0.5 µg/mL (≈ 2.18 µM)
[1]
  MIC: 4 µg/mL
[2]; [5]
  MIC: 1 µg/mL (≈ 4.36 µM)
[3]; [6]
  MIC: 2 µg/mL (≈ 8.72 µM)
Str. faecalis A-20688
  MIC: 2 µg/mL (≈ 8.72 µM)
E. coli A-15119
  MIC: 2 µg/mL (≈ 8.72 µM)
E. coli A-20341-1; [7]
  MIC: 8 µg/mL (≈ 34.9 µM)
K. pneumoniae A-15130
  MIC: 8 µg/mL (≈ 34.9 µM)
[4]
  MIC: 63 µg/mL (≈ 275 µM)
Pr. mirabilis A-9900
  MIC: 2 µg/mL (≈ 8.72 µM)
Pr. morganii A-15153
  MIC: 8 µg/mL (≈ 34.9 µM)
Ser. marcescens A-20019
  MIC: 8 µg/mL (≈ 34.9 µM)
Ent. cloacae A-9659
  MIC: 8 µg/mL (≈ 34.9 µM)
Ent. cloacae A-9656; [8]
  MIC: 32 µg/mL (≈ 140 µM)
Ps. aeruginosa A-9843A
  MIC: 63 µg/mL (≈ 275 µM)
Proteus rettgeri A21203; [9]
  MIC: 2 µg/mL (≈ 8.72 µM)
Proteus vulgaris A21559
  MIC: 4 µg/mL (≈ 17.4 µM)

## O=C(O)C1=C(C2CC2)SC2CC(=O)N12 (stereo not shown) [Example 14, 2-Cyclopropylpenem-3-carboxylic Acid]
Str. pneumoniae A-9585
  MIC: 0.06 µg/mL (≈ 0.284 µM)
Str. pyogenes A-9604
  MIC: 0.25 µg/mL (≈ 1.18 µM)
Staph. aureus A-9537
  MIC: 0.13 µg/mL (≈ 0.615 µM)
[1]
  MIC: 16 µg/mL
[3]; [6]
  MIC: 2 µg/mL (≈ 9.47 µM)
Str. faecalis A-20688
  MIC: 63 µg/mL (≈ 298 µM)
E. coli A-15119
  MIC: 4 µg/mL (≈ 18.9 µM)
E. coli A-20341-1; [7]
  MIC: 63 µg/mL (≈ 298 µM)
K. pneumoniae A-15130
  MIC: 16 µg/mL (≈ 75.7 µM)
[4]
  MIC: > 125 µg/mL
Pr. mirabilis A-9900
  MIC: 4 µg/mL (≈ 18.9 µM)
Pr. morganii A-15153
  MIC: 16 µg/mL (≈ 75.7 µM)
Ser. marcescens A-20019
  MIC: 8 µg/mL (≈ 37.9 µM)
Ent. cloacae A-9659
  MIC: 16 µg/mL (≈ 75.7 µM)
Ent. cloacae A-9656; [8]
  MIC: 16 µg/mL (≈ 75.7 µM)
Ps. aeruginosa A-9843A
  MIC: 125 µg/mL (≈ 592 µM)
Ps. aeruginosa A-21213; Pseudomonas aeruginosa A21213
  MIC: 125 µg/mL (≈ 592 µM)
Proteus rettgeri A21203; [9]
  MIC: 4 µg/mL (≈ 18.9 µM)

## CC1=C(C(=O)O)N2C(=O)[C@@H]([C@@H](C)O)[C@H]2S1 (relative stereo) [Example 58, (1'R,5R,6R) and (1'S,5S,6S) 6-(1'-Hydroxy-1'-ethyl)-2-methylpenem-3-carboxylic Acid (isomer D)]
Str. pyogenes A-9604; Str. pyogenes A9604
  Minimum Inhibitory Concentration (M.I.C.): 2 µg/mL
Staph. aureus A-9537; Staph. aureus A9537
  Minimum Inhibitory Concentration (M.I.C.): 4 µg/mL
[3]; Staph. aureus A15097 (Meth-Res)
  Minimum Inhibitory Concentration (M.I.C.): 16 µg/mL

## O=C([O-])C1=C(CO)S[C@@H]2CC(=O)N12.[Na+] [Preparation 20, Sodium 2-Hydroxymethylpenem-3-carboxylate]
Str. pneumoniae A-9585
  MIC: 0.25 µg/mL
Str. pyogenes A-9604
  MIC: 1 µg/mL
Staph. aureus A-9537
  MIC: 2 µg/mL
[1]
  MIC: 16 µg/mL
[2]; read-out: Minimum Inhibitory Concentration (M.I.C.), Staph. aureus A9606 (Pen-Res)
  MIC: 4 µg/mL
[3]; read-out: Minimum Inhibitory Concentration (M.I.C.), Staph. aureus A15097 (Meth-Res)
  MIC: 8 µg/mL
Str. faecalis A-20688
  MIC: > 125 µg/mL
E. coli A-15119
  MIC: 16 µg/mL
E. coli A-20341-1; Escherichia coli, A203411; E. coli A20341-1; overnight 37° C.; read-out: Minimum Inhibitory Concentration (M.I.C.)
  MIC: 63 µg/mL
K. pneumoniae A-15130
  MIC: 63 µg/mL
[4]
  MIC: > 125 µg/mL
Pr. mirabilis A-9900
  MIC: 16 µg/mL
Pr. morganii A-15153
  MIC: 32 µg/mL
Ser. marcescens A-20019
  MIC: 32 µg/mL
Ent. cloacae A-9659
  MIC: 63 µg/mL
Ent. cloacae A-9656; Enterobacter cloacae A9656
  MIC: 32 µg/mL
Ps. aeruginosa A-9843A
  MIC: 125 µg/mL
Ps. aeruginosa A-21213; Pseudomonas aeruginosa A21213
  MIC: > 125 µg/mL
Proteus rettgeri A21203; Proteus rettgeri A21203
  MIC: 32 µg/mL
